This note sets out measurements from ChEMBL document CHEMBL1134647, “Design and synthesis of non-peptidic inhibitors for the Syk C-terminal SH2 domain based on structure-based in-silico screening” (J Med Chem, 2001).

The target in one assay is T1, Tyrosine-protein kinase SYK (Homo sapiens, UniProt P43405). Nature of the assay: Inhibitory activity against Syk C-terminal SH2 domain in in-silico screening. Type of assay: functional.
For `NC(Cc1ccc(CP(=O)(O)O)cc1)C(=O)O` (stereo not given), half-maximal inhibition (IC50) required 14000 µM.

For a further assay, the target named is T1, Tyrosine-protein kinase SYK. In words: Inhibitory activity against Syk C-terminal SH2. Format: functional.
Compound `CC(C)CCCCN(CCCCCC(=O)O)S(=O)(=O)/C=C/c1ccc(NC(=O)[C@H]2CC[C@H](C(C(=O)O)C(=O)O)CC2)cc1` returned a half-inhibitory concentration (IC50) of 69 µM.
Still for that read-out and setting: the value for `O=C(O)CCCCCN(CCCC1CCCCC1)S(=O)(=O)/C=C/c1ccc(NC(=O)[C@H]2CC[C@@H](C(C(=O)O)C(=O)O)CC2)cc1` was 40 µM; that for `O=C(O)C(C(=O)O)C1CCCCC1` was 5900 µM.
The same measure, in the same setting: the figure for `O=C(O)CCCCCN(CCCC1CCCCC1)S(=O)(=O)/C=C/c1ccc(NC(=O)[C@H]2CC[C@H](C(C(=O)O)C(=O)O)CC2)cc1` is 38 µM.
On the same count and under the same terms, the figure for `O=C(O)CCCCCN(CCCC1CCCCC1)S(=O)(=O)/C=C/c1ccc(NC(=O)C2CC=C(C(C(=O)O)C(=O)O)CC2)cc1` (stereo not given) is 41 µM.
The compound `O=C(O)CCCCCNS(=O)(=O)/C=C/c1ccc(NC(=O)[C@H]2CC[C@H](C(C(=O)O)C(=O)O)CC2)cc1` gave a 50% inhibitory concentration (IC50) of 350 µM.
Compound `O=C(O)C(C(=O)O)C1CC/C=C\CCC1` (stereo not given) registered an IC50 of 7700 µM.
Still for that read-out and setting: the value for `O=C(O)C(C(=O)O)c1ccccc1` was 12000 µM; that for `CC(C)CCCCN(CCCCCC(=O)O)S(=O)(=O)/C=C/c1ccc(NC(=O)[C@H]2CC[C@@H](C(C(=O)O)C(=O)O)CC2)cc1` was 63 µM; that for `CC(C)CCCCN(CCCCCC(=O)O)S(=O)(=O)/C=C/c1ccc(NC(=O)C2CC=C(C(C(=O)O)C(=O)O)CC2)cc1` (stereo not given) was 71 µM.

The next assay shares this target. In words: Inhibitory activity against Syk C-terminal SH2 (at 10 mM). Type of assay: functional.
`O=C(O)CCCCCNS(=O)(=O)/C=C/c1ccccc1` showed an IC50 of 8000 µM.

The target is the same in the next assay. In words: Inhibitory activity against Syk C-terminal SH2 at 10 mM. Type of assay: functional.
`O=C(O)CCCNS(=O)(=O)/C=C/c1ccccc1` registered an inhibition of 2.3%.
Compound `Nc1cccc2c(S(=O)(=O)NCC(=O)O)cccc12` showed an inhibition of 39%.
On to `O=C(O)CCNS(=O)(=O)c1ccc(F)cc1`, for which the inhibition turned out to be 0.9%.
